We go through three compounds from ChEMBL document CHEMBL4699609, “Synthesis and biological activities of simplified aplysiatoxin analogs focused on the CH/π interaction” (Bioorg Med Chem Lett, 2020).

pKi: −log10 of the molar value. Calls of active or inactive are those of the source. No cut-off for these calls is given here.

Series [1] concerns HCC 2998. As to the kind of experiment: Antiproliferative activity against human HCC 2998 cells assessed as cell growth inhibition after 48 hrs by sulforhodamine B assay. The format is functional.
Series [2] addresses Protein kinase C delta type (Mus musculus, UniProt P28867). As to the kind of experiment: Displacement of [3H]-PDBu from PKCdelta C1B domain in CD-1 mouse brain cytosol. The format is subcellular. A general note: In a radioligand displacement assay an active substance lowers the binding of a labelled ligand.
In series [3] the test system is LOX IMVI. Put plainly: Antiproliferative activity against human LOX IMVI cells assessed as cell growth inhibition after 48 hrs by sulforhodamine B assay. The format is functional. In general terms: In SRB staining, fixed cells bind dye roughly in proportion to their protein.
The nature of series [4]: Induction of inflammation in ICR mouse assessed as increase in relative weight of each ear at 170 nmol measured after 24 hrs. It is filed as tissue-based.
For series [5], the system named is MDA-MB-231. As to the kind of experiment: Antiproliferative activity against human MDA-MB-231 cells assessed as cell growth inhibition after 48 hrs by sulforhodamine B assay. The format is functional.
In series [6] the test system is SF-295. Put plainly: Antiproliferative activity against human SF-295 cells assessed as cell growth inhibition after 48 hrs by sulforhodamine B assay. It is filed as functional.
For series [7], the system named is A549. Put plainly: Antiproliferative activity against human A549 cells assessed as cell growth inhibition after 48 hrs by sulforhodamine B assay. The format is functional.
Series [8] has as its system St-4. Put plainly: Antiproliferative activity against human St-4 cells assessed as cell growth inhibition after 48 hrs by sulforhodamine B assay. The format is functional.
Series [9] concerns the target Protein kinase C alpha type (Mus musculus, UniProt P20444). As to the kind of experiment: Displacement of [3H]-PDBu from PKCalpha C1A domain in CD-1 mouse brain cytosol. The format is subcellular.
A short description of series [10]: Antiproliferative activity against human HBC-4 cells assessed as cell growth inhibition after 48 hrs by sulforhodamine B assay. It is filed as functional. To be noted: HBC4.
In series [11] the test system is NCI-H460. As to the kind of experiment: Antiproliferative activity against human NCI-H460 cells assessed as cell growth inhibition after 48 hrs by sulforhodamine B assay. It is filed as functional.
Series [12] deals with MKN-45. Put plainly: Antiproliferative activity against human MKN-45 cells assessed as cell growth inhibition after 48 hrs by sulforhodamine B assay. It is filed as functional.
For series [13], the system named is Ear. Put plainly: Proinflammatory activity in ICR mouse assessed as increase in relative weight of each ear at 17 nmol measured after 24 hrs. The format is functional, tissue-based.

Sequence of Protein kinase C delta type (P28867 whole entry, the tested form may be a part): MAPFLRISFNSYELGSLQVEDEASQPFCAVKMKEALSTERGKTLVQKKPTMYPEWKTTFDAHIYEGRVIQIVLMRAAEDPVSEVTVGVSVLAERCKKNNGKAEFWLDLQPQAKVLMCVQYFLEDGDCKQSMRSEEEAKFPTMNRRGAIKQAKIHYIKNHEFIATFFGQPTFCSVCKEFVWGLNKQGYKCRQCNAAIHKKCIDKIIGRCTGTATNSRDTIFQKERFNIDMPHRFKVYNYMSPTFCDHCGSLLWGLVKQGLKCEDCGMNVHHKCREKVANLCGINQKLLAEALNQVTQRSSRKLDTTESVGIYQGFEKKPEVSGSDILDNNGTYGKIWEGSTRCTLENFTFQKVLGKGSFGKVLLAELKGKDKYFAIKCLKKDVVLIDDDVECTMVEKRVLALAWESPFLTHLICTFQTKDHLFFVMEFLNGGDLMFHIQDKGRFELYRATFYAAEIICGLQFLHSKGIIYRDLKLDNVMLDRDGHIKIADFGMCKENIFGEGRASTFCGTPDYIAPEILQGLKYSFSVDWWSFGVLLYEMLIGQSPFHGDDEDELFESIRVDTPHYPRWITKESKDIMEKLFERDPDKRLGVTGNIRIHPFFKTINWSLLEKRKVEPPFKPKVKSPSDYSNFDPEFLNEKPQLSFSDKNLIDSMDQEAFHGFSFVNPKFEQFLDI

A word on the GI50: it is the concentration that inhibits growth by half. As a reminder, the pKi is the Ki on a negative log10 scale, so that one unit is a factor of ten. Lower therefore signals a high Ki. Regarding `C[C@H]1[C@@H]2C[C@@]3(O[C@H](CCC3(C)C)CC(=O)O[C@@H](CO)CC(=O)O2)O[C@@H]1CCCCc1cccc2cc(O)ccc12`, the GI50 is 501 nM in series [1]; 447 nM in series [3]; 891 nM in series [5]; 955 nM in series [6]; 759 nM in [7]; 240 nM in series [8]. Further, the GI50 in series [10] is 91.2 nM; in series [11] it was 162 nM; in series [12], 479 nM. Moreover, the figures for the pKi in [2] and in series [9] were 9.01 and 8.19, respectively. In addition, the Activity result in [4] was “Toxic”.
With `C[C@H]1[C@@H]2C[C@@]3(O[C@H](CCC3(C)C)CC(=O)O[C@@H](CO)CC(=O)O2)O[C@@H]1CCCCc1cccc2cc(OCc3ccccc3)ccc12`, the GI50 in series [1] was 398 nM; in [3], 182 nM; in series [5], 537 nM; in [6], 871 nM; in series [7], 692 nM; in series [8] it was 52.5 nM. Further, the GI50 in series [10] is 63.1 nM; in series [11], 115 nM; in series [12], 195 nM. Also, the pKi in series [2] is 9.13; in series [9], 8.12. In addition, the result in series [13] was Active.
Take `C[C@H]1[C@@H]2C[C@@]3(O[C@H](CCC3(C)C)CC(=O)O[C@@H](CO)CC(=O)O2)O[C@@H]1CCCCc1cccc(O)c1`: in series [4], the Activity entry is listed as “Toxic”.
